Reference: ChEMBL document CHEMBL1201862, “PubChem BioAssay data set” (2004)
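These data come from cells grown in 96-well plates and exposed to compound for 48 hours at five concentrations. Abbreviation: GI50, concentration required for 50% inhibition of growth.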 Active and inactive are the calls of the source. No stated cut-off is given here; in the data, active = GI50 up to about 1.1 µM and inactive = higher.

Columns and labels:
Assay in all cases: growth of human tumour cells (NCI), 48 h
[1] = test system: Malme-3M
[2] = test system: NCI-H23
[3] = test system: A549
[4] = test system: SF-295
[5] = test system: OVCAR-8
[6] = test system: DMS-114
[7] = test system: HCT-15
[8] = test system: HT-29
[9] = test system: NCI-H226
[10] = test system: SK-OV-3
[11] = test system: KM-20L2
[12] = test system: SNB-19
[13] = test system: M14
[14] = test system: OVCAR-5
[15] = test system: LOX IMVI
[16] = test system: SF-268
[17] = test system: HCT-116
[18] = test system: M19-MEL
[19] = test system: SNB-75
[20] = test system: SR
[21] = test system: CCRF-CEM
[22] = test system: NCI-H522
[23] = test system: SF-539
[24] = test system: SK-MEL-28
[25] = test system: DMS-273
[26] = test system: SK-MEL-5
[27] = test system: HOP-62
[28] = test system: SW-620
[29] = test system: UO-31
[30] = test system: HCC 2998
[31] = test system: NCI-H460
[32] = test system: OVCAR-4
[33] = test system: LXFL 529
[34] = test system: UACC-257
[35] = test system: 786-0
[36] = test system: UACC-62
[37] = test system: COLO 205
[38] = test system: RPMI-8226
[39] = test system: SK-MEL-2
[40] = test system: DLD-1
[41] = test system: EKVX
[42] = test system: ACHN
[43] = test system: KM12
[44] = test system: K562
[45] = test system: CAKI-1
[46] = test system: MOLT-4
[47] = test system: OVCAR-3
[48] = test system: U-251
[49] = test system: SN12C
[50] = test system: MDA-MB-435
[51] = test system: RXF 393
[52] = test system: PC-3
[53] = test system: Hs-578T
[54] = test system: HL-60
[55] = test system: TK-10
[56] = test system: HOP-92
[57] = test system: MDA-MB-231
[58] = test system: A498
[59] = test system: IGROV-1
[60] = test system: MCF7
[61] = test system: DU-145
[62] = test system: MDA-N
[63] = test system: BT-549
[64] = test system: NCI/ADR-RES
[65] = test system: T47D

Measured: GI50

O=c1[nH]c(=O)n(C2CC(O)C(CO)O2)cc1C#Cc1c(F)c(F)c(F)c(F)c1F (stereo not drawn)
inactive: [1] > 100 µM | [2] > 100 µM | [3] > 100 µM | [4] > 100 µM | [5] > 100 µM | [6] > 100 µM | [8] > 100 µM | [9] > 100 µM | [10] > 100 µM | [11] > 100 µM | [12] > 100 µM | [13] > 100 µM | [14] > 100 µM | [15] > 100 µM | [16] > 100 µM | [17] > 100 µM | [18] > 100 µM | [19] > 100 µM | [20] > 100 µM | [21] > 100 µM | [22] > 10 µM | [23] > 100 µM | [24] > 100 µM | [25] > 100 µM | [26] > 100 µM | [27] > 100 µM | [28] > 100 µM | [29] > 100 µM | [30] > 100 µM | [31] > 100 µM | [32] > 100 µM | [33] > 100 µM | [34] > 100 µM | [35] > 100 µM | [36] > 100 µM | [37] > 100 µM | [38] > 100 µM | [39] > 100 µM | [40] > 100 µM | [41] > 100 µM | [42] > 100 µM | [43] > 100 µM | [44] > 100 µM | [45] > 100 µM | [46] > 100 µM | [47] > 100 µM | [48] > 100 µM | [49] > 100 µM
> 100 µM: [7]

O=C(CCCC1Cc2ccccc2C1=O)c1ccccc1 (stereo not drawn)
74.8 µM: [7]
inactive: [1] 44.2 µM | [2] 60.1 µM | [3] 50 µM | [4] 47.5 µM | [5] 79.6 µM | [50] 56.1 µM | [8] 42.2 µM | [9] 70.1 µM | [10] > 100 µM | [51] 52.5 µM | [12] 89.9 µM | [13] 99.8 µM | [14] > 100 µM | [52] 35.1 µM | [53] > 100 µM | [15] 34.8 µM | [16] > 100 µM | [17] 63.8 µM | [19] 70.5 µM | [54] 32.4 µM | [55] 84.5 µM | [56] 62.8 µM | [20] 41.2 µM | [21] 66.5 µM | [22] 52.7 µM | [57] > 100 µM | [58] 52.5 µM | [23] > 100 µM | [59] > 100 µM | [60] 31.2 µM | [24] > 100 µM | [26] 35.6 µM | [27] > 100 µM | [28] > 100 µM | [29] 47.1 µM | [30] > 100 µM | [31] 89.9 µM | [32] 59.3 µM | [61] > 100 µM | [34] 46.2 µM | [35] > 100 µM | [36] 69.5 µM | [37] 93.8 µM | [38] 46.9 µM | [39] > 100 µM | [62] 66.2 µM | [63] 38.6 µM | [41] 65.2 µM | [42] 98.4 µM | [43] 96.4 µM | [44] 39.8 µM | [45] > 100 µM | [46] 33.3 µM | [47] 47.4 µM | [48] 38.6 µM | [64] 26.9 µM | [65] 33.3 µM | [49] 54.7 µM
